{"source": "patent US6649797B2", "about": "“Compounds and methods of use to treat infectious diseases” (The Picower Institute for Medical Research, priority 1996, dated 2003)", "key": {"[1]": {"system": "HIV-1 pre-integration complexes / karyopherin α", "experiment": "Binding of HIV-1 pre-integration complexes to GST-karyopherin α", "type": "biochemical", "experimental": "Cytoplasmic lysates of H9 cells infected with HIV-1RF (upper panel) or HIV-like pseudovirions (bottom panel) were treated for 2 hours with various concentrations of CNI-H0294, and were then mixed with GST-karyopherin α immobilized on glutathione Sepharose beads. HIV-1 DNA or RNA that co-precipitated with karyopherin α was quantified as in A and B.\nCytoplasmic lysates prepared from H9 cells infected with HIV-1RF were treated with 10 μM CNI-H3094 (lane 1) or with 1 μM CNI-H0294 and 10 μM (lane 5), 5 μM (lane 4), 1 μM (lane 3), or no CNI-H3094 (lane 2). The amount of pre-integration complexes available for interaction with karyopherin α was quantified as in FIG. 10.\nH9 cells were infected with equal amounts of wild-type HIV-1NLHX or with mutant HIV-1NLHX that lack Vpr (Vpr^−) or carry a mutation that inactivates the MA NLS (MA NLS^−). Infected cells were washed and incubated for 4 h. An aliquot of each sample was used to quantify the total HIV-1 DNA (FIG. 14A) and the rest was used to prepare cytoplasmic extracts. Extracts were incubated with 1 μM CNI-H0294 (FIG. 14B, lanes 2, 4, 6, 8) or were left untreated (lanes 1, 3, 5, 7). The amount of pre-integration complexes available for binding to karyopherin α was determined as in FIG. 10.\nH9 cells were infected with HIV-1 or HIV-like pseudovirions (Haffar, et al., 1990, J. Virol., 64:2653-2659) at a multiplicity adjusted according to p24 content (50 ng p24 per 10^6 cells) The MA NLS^− virus contains substitutions of isoleucine residues for lysines in positions 26 and 27 of MA in an NLHX backbone (Westervelt., et al., 1992, J. Virol. 66:2577-2582), thus inactivating the NLS. The Vpr^− virus has the initiating ATG of the vpr gene changed to GTG, thus abolishing expression of this gene. The ΔMA NLS pseudovirions have leucine substituting for lysine in position 28 of MA. This mutation abrogates nuclear translocation of HIV-1 gag RNA in growth-arrested H9 cells infected with pseudovirions. After a 1 hour absorption, excess viruses or pseudovirions were washed away, and cells were incubated for an additional 2-3 hour period at 37° C. prior to analysis.\nCytoplasmic extracts were prepared by lysing cells in cold extraction buffer (10 mM KCl, 10 mM Tris-HCl [pH 7.6], 0.5 mM MgCl2, 1 μg/ml each of leupeptin and aprotinin, and 1 MM phenylmethylsulfonyl fluoride [PMSF]) by 20-30 strokes of a Dounce homogenizer under the control of phase-contrast microscopy. After removal of nuclei, cytoplasmic extract was cleared by centrifugation at 15,000 g for 10 min.\nCytoplasmic extracts prepared from HIV-1-or pseudovirion-infected H9 cells were adjusted to 0.14 M NaCl, 0.1% Tween 20 and precleared with glutathione-Sepharose beads for 30 min. at room temperature. Karyopherin α was expressed as a fusion protein with glutathione S-transferase (GST) which can bind glutathione beads in solution. GST-karyopherin α immobilized on Sepharose beads was then added (about 50 μg of immobilized karyopherin α per extract from 108 infected cells) and the mixture was incubated at room temperature for another 30 min. Beads were then pelleted by centrifugation and washed 3 times with PBS supplemented with 0.1% Tween 20, 1 μg/ml each of leupeptin and aprotinin, and 1 mM PMSF. HIV-1 DNA was isolated from the beads by SDS-proteinase K treatment with subsequent phenol-chloroform extraction, while pseudovirion gag RNA was isolated by RNazol (Biotecx Laboratories Inc.)."}, "HIV-1ADA": {"system": "HIV-1ADA", "experiment": "Anti-HIV activity in primary human monocytes, day 9 (Table IX, FIG. 12C)", "type": "cell-based", "experimental": "Monocytes infected with HIV-1ADA were cultured in the presence of CNI-H0294 and CNI-H3094 in various concentrations. Nine days after infection, RT activity in culture supernatants was quantified. The results are presented as percent of total RT activity in untreated cultures (control). Three independent samples were assayed for each drug concentration, and the standard deviation was less than 15%.\n[…] A 50% inhibitory concentration (IC50) was determined at day 9 after infection."}, "[2]": {"molecular_target": "T1, recombinant RT (p51/p66 heterodimer) (Human immunodeficiency virus type 1 group M subtype B, UniProt P04585)", "T1 construct": "recombinant MA or RT (a p51/p66 heterodimer)", "experiment": "Binding of [14C]-CNI-H0294 to recombinant RT in solution (immunoprecipitation)", "parameters": "species or system HIV-1", "settings": "0.2 μM RT, 3.3 μM labeled CNI-H0294, increasing unlabeled compound", "experimental": "Twenty nmol of [^14C]-CNI-HO294 were mixed with 0.28 nmol of recombinant MA or RT (a p51/p66 heterodimer) in 40 μl of binding buffer. Samples were incubated for 2 h at 37° C. in the presence or absence of 200 nmol of unlabeled CNI-H0294. MA and RT proteins were immunoprecipitated using protein G agarose and sheep polyclonal anti-MA (αMA) or rabbit anti-RT (αRT) sera, respectively. Pre-immune sera (PI) was used as control. Bound material was eluted from protein G using 0.1 M glycine buffer [pH 2.8] and the radioactivity in the eluate was quantified in a scintillation counter.\nRecombinant RT (0.2 μM) was incubated with 3.3 μM of [^14C ]-labeled CNI-H0294 and increasing concentrations of unlabeled (cold) CNI-3094. The amount of [^14C]-CNI-H0294 that bound to RT was measured as in FIG. 11.\n0.28 nanomoles of recombinant MA or RT [p66/p51 ] dimer were mixed with 20 nmol of [^14C] CNI-HO294 (specific activity 5×10^4 cpm/nmol) and incubated 2 hr at room temperature in 40 μl of binding buffer (PBS supplemented with 1% BSA, 0.1% Tween 20, 1 μg/ml leupeptin, 1 μg/ml aprotinin, 1 mM PMSF). Sheep anti-MA or rabbit anti-RT sera (both obtained from NIH AIDS Research and Reference Reagent Program) or pre-immune control sera were then added (at 1:100 dilution) and incubation continued for another 1 hr at room temperature. Immune complexes were precipitated with protein G-agarose, washed, and then eluted with 0.1 M glycine, pH 2.8. Radioactivity of the eluate was measured in a scintillation counter."}}, "data": [{"smiles": "COC(=O)c1cc(Nc2cc(C)nc(N)n2)cc(C(=O)OC)c1", "note": "[CNI-H3094]", "values": [{"measurement": "inhibition of binding of HIV-1 pre-integration complexes to karyopherin α", "setting": "[1]; 10 μM alone (FIG. 12B, lane 1)", "result": "did not inhibit"}, {"measurement": "effect on CNI-H0294 inhibition of pre-integration complex binding to karyopherin α", "setting": "[1]; 5-fold excess over 1 μM CNI-H0294", "result": "reduced significantly the inhibitory effect of CNI-H0294"}, {"measurement": "effect on CNI-H0294 inhibition of pre-integration complex binding to karyopherin α", "setting": "[1]; 10-fold excess over 1 μM CNI-H0294", "result": "completely eliminated the inhibitory effect"}, {"measurement": "IC50", "setting": "HIV-1ADA; Human immunodeficiency virus 1, Monocyte, 216 h, day 9 after infection, >10 μM = 50% inhibition not achieved at maximal concentration, read-out: IC50", "result": "> 10", "unit": "µM"}, {"measurement": "effect on anti-HIV activity of CNI-H0294 in monocyte cultures", "setting": "HIV-1ADA; RT activity nine days after infection (FIG. 12C)", "result": "eliminated the inhibitory effect of CNI-H0294 on HIV-1 replication"}, {"measurement": "competition with [14C]-labeled CNI-H0294 for binding to RT", "setting": "[2]", "result": "inhibits binding of [^14C]-labeled CNI-H0294 to RT in a dose-dependent manner"}]}]}
